Test results published in patent publication US20090074815A1, “Immunomodulator Compounds as Vaccine Enhancers” (SCICLONE PHARMACEUTICALS, INC., priority 2005, published 2009).
Where two headings read alike, the source gives them in different places.

Legend:
[1] = test system: IL-12R40 production by OvA-stimulated splenocytes; experiment: OvA-stimulated production of IL-12R40 by splenocytes of OvA-immunized mice; settings: for activity at 0.001 mg/kg / activity at 0.01 mg/kg: Mus musculus, Splenocyte, po, read-out: Production of IL-12R40 by splenocytes, % (% of control), OvA/FA; for Production of IL-12R40 by splenocytes / Production of IL-12R40 by splenocytes, % (% of control): OvA/FA
Protocol: The OvA was administered subcutaneously to the crest in a volume of 200 μl. Mice were immunized on day 1 with OvA in complete Freund's adjuvant (CFA; Sigma) and on day 15 with the antigen in incomplete Freund's adjuvant (IFA; Sigma). The immune response was analyzed on day 29. Mice were also immunized with 10 μg/mouse of OvA using Alum as an adjuvant.
Thymuses and spleens from mice of each treatment group were pooled, and then minced with scissors. The minced tissues were suspended in sterile PBS to form cell suspensions, filtered through a double gauze layer and centrifuged. Cells were washed twice with PBS, re-suspended in RPMI-1640 (Sigma) with 2.0 mM of L-glutamine, 50 μM of mercaptoethanol, and 10 μg/ml of gentamycin (complete medium); and cell counts were made. (The splenocyte suspension was washed with a 0.86% solution of NH4Cl to pre-lyse erthrocytes.)
Assessment of Mitogen- and Antigen-Induced Production of Cytokines: Thymic cells (1×10^6/well) in complete medium with 2% FCS were stimulated with ConA (0, 1, and 2 μg/ml). Splenocytes (1×10^6/well) in complete medium with 5% FCS were stimulated with ConA (0, 1, and 5 μg/ml) and with OvA (0-100 μg/ml). […] Supernatants from OvA-stimulated cultures were collected after 72 hours. Supernatants from both cultures were frozen, and kept at 20° C. Concentrations of IL-2, IL-4, IL-10, IL-12R40 and IFNγ in the supernatants were determined by solid-phase EIA with EIA Expansion Kits, available from BD Biosciences (formerly Pharmingen), in accordance with the manufacturer's instructions.

[2] = test system: IL-4 production by ConA-stimulated splenocytes; experiment: IL-4 production by ConA-stimulated splenocytes (EIA); type: in vivo, mice
neutrophils = experiment: Concentration and functional activity of neutrophils (phagocytosis, lysosomal activity, spontaneous and induced HCT test) before and after vaccination; type: in vivo, human
[3] = 1.0 μg/kg per os, OvA 100 μg/ml
[4] = 10.0 μg/kg per os, OvA 10 μg/ml
[5] = 10.0 μg/kg per os, OvA 25 μg/ml
[6] = 10.0 μg/kg per os, OvA 50 μg/ml
[7] = 10.0 μg/kg per os, OvA 100 μg/ml
[8] = Group 2 (patients with infectious syndrome, hepatitis B vaccination with SCV-07), after vaccination, n = 16, M ± m

N[C@H](CCC(=O)N[C@@H](Cc1c[nH]c2ccccc12)C(=O)O)C(=O)O [SCV-07, γ-D-glutamyl-L-tryptophan]
activity at 0.001 mg/kg ([1]; 1.0 μg/kg per os, OvA 10 μg/ml): 26.9% | activity at 0.001 mg/kg ([1]; 1.0 μg/kg per os, OvA 25 μg/ml): 23.8% | activity at 0.001 mg/kg ([1]; 1.0 μg/kg per os, OvA 50 μg/ml): 26.5% | activity at 0.001 mg/kg [1, 3]: 25.1% | activity at 0.01 mg/kg ([1]; 10.0 μg/kg per os, OvA 0 μg/ml): 100% | activity at 0.01 mg/kg [1, 4]: 52.9% | activity at 0.01 mg/kg [1, 5]: 40.7% | activity at 0.01 mg/kg [1, 6]: 32.4% | activity at 0.01 mg/kg [1, 7]: 31.9% | OvA-induced production of IL-12r40 by splenocytes versus control ([1]; OvA/Alum, per os or i/p, data not shown): No significant differences | Production of IL-12R40 by splenocytes ([1]; 0.1 μg/kg i/p, OvA 0 μg/ml): 1285.7 pg/mL | Production of IL-12R40 by splenocytes ([1]; 0.1 μg/kg i/p, OvA 10 μg/ml): 492.4 pg/mL | Production of IL-12R40 by splenocytes, % (% of control) ([1]; 0.1 μg/kg i/p, OvA 10 μg/ml): 38.3% | Production of IL-12R40 by splenocytes ([1]; 0.1 μg/kg i/p, OvA 25 μg/ml): 499.6 pg/mL | Production of IL-12R40 by splenocytes, % (% of control) ([1]; 0.1 μg/kg i/p, OvA 25 μg/ml): 38.9% | Production of IL-12R40 by splenocytes ([1]; 0.1 μg/kg i/p, OvA 50 μg/ml): 420.8 pg/mL | Production of IL-12R40 by splenocytes, % (% of control) ([1]; 0.1 μg/kg i/p, OvA 50 μg/ml): 32.7% | Production of IL-12R40 by splenocytes ([1]; 0.1 μg/kg i/p, OvA 100 μg/ml): 522.8 pg/mL | Production of IL-12R40 by splenocytes ([1]; 0.1 μg/kg per os, OvA 0 μg/ml): 1307.6 pg/mL | Production of IL-12R40 by splenocytes ([1]; 0.1 μg/kg per os, OvA 10 μg/ml): 478.1 pg/mL | Production of IL-12R40 by splenocytes ([1]; 0.1 μg/kg per os, OvA 25 μg/ml): 317.4 pg/mL | Production of IL-12R40 by splenocytes ([1]; 0.1 μg/kg per os, OvA 50 μg/ml): 267.0 pg/mL | Production of IL-12R40 by splenocytes ([1]; 0.1 μg/kg per os, OvA 100 μg/ml): 246.5 pg/mL | Production of IL-12R40 by splenocytes ([1]; 1.0 μg/kg i/p, OvA 0 μg/ml): 1524.0 pg/mL | Production of IL-12R40 by splenocytes ([1]; 1.0 μg/kg i/p, OvA 10 μg/ml): 933.8 pg/mL | Production of IL-12R40 by splenocytes, % (% of control) ([1]; 1.0 μg/kg i/p, OvA 10 μg/ml): 61.3% | Production of IL-12R40 by splenocytes ([1]; 1.0 μg/kg i/p, OvA 25 μg/ml): 739.7 pg/mL | Production of IL-12R40 by splenocytes, % (% of control) ([1]; 1.0 μg/kg i/p, OvA 25 μg/ml): 48.5% | Production of IL-12R40 by splenocytes ([1]; 1.0 μg/kg i/p, OvA 50 μg/ml): 630.3 pg/mL | Production of IL-12R40 by splenocytes, % (% of control) ([1]; 1.0 μg/kg i/p, OvA 50 μg/ml): 41.4% | Production of IL-12R40 by splenocytes ([1]; 1.0 μg/kg i/p, OvA 100 μg/ml): 616.4 pg/mL | Production of IL-12R40 by splenocytes, % (% of control) ([1]; 1.0 μg/kg i/p, OvA 100 μg/ml): 40.4% | Production of IL-12R40 by splenocytes ([1]; 1.0 μg/kg per os, OvA 0 μg/ml): 1362.3 pg/mL | Production of IL-12R40 by splenocytes ([1]; 1.0 μg/kg per os, OvA 10 μg/ml): 366.3 pg/mL | Production of IL-12R40 by splenocytes ([1]; 1.0 μg/kg per os, OvA 25 μg/ml): 324.5 pg/mL | Production of IL-12R40 by splenocytes ([1]; 1.0 μg/kg per os, OvA 50 μg/ml): 360.8 pg/mL | Production of IL-12R40 by splenocytes [1, 3]: 342.4 pg/mL | Production of IL-12R40 by splenocytes ([1]; 10.0 μg/kg per os, OvA 0 μg/ml): 1455.1 pg/mL | Production of IL-12R40 by splenocytes [1, 4]: 769.3 pg/mL | Production of IL-12R40 by splenocytes [1, 5]: 592 pg/mL | Production of IL-12R40 by splenocytes [1, 6]: 471.9 pg/mL | Production of IL-12R40 by splenocytes [1, 7]: 464.8 pg/mL | IL-4 ([2]; ConA 1 μg/ml, 0.01 μg/kg per os): 98.7 pg/mL | IL-4 ([2]; ConA 1 μg/ml, 0.1 μg/kg i/p): 62.1 pg/mL | IL-4 ([2]; ConA 1 μg/ml, 0.1 μg/kg per os): 78.9 pg/mL | IL-4 ([2]; ConA 1 μg/ml, 1.0 μg/kg i/p): 52.8 pg/mL | IL-4 ([2]; ConA 1 μg/ml, 1.0 μg/kg per os): 95.8 pg/mL | IL-4 ([2]; ConA 1 μg/ml, 10.0 μg/kg per os): 53.8 pg/mL | IL-4 ([2]; ConA 1 μg/ml, 100.0 μg/kg per os): 83.1 pg/mL | IL-4 ([2]; ConA 5 μg/ml, 0.01 μg/kg per os): 284.9 pg/mL | IL-4 ([2]; ConA 5 μg/ml, 0.1 μg/kg i/p): 277.5 pg/mL | IL-4 ([2]; ConA 5 μg/ml, 0.1 μg/kg per os): 229.6 pg/mL | IL-4 ([2]; ConA 5 μg/ml, 1.0 μg/kg i/p): 152.9 pg/mL | IL-4 ([2]; ConA 5 μg/ml, 1.0 μg/kg per os): 260.0 pg/mL | IL-4 ([2]; ConA 5 μg/ml, 10.0 μg/kg per os): 275.0 pg/mL | IL-4 ([2]; ConA 5 μg/ml, 100.0 μg/kg per os): 192.0 pg/mL | IL-4 ([2]; Spontaneous, 0.01 μg/kg per os): 6.1 pg/mL | IL-4 ([2]; Spontaneous, 0.1 μg/kg i/p): 4.2 pg/mL | IL-4 ([2]; Spontaneous, 0.1 μg/kg per os): 0.0 pg/mL | IL-4 ([2]; Spontaneous, 1.0 μg/kg i/p): 0.0 pg/mL | IL-4 ([2]; Spontaneous, 1.0 μg/kg per os): 25.3 pg/mL | IL-4 ([2]; Spontaneous, 10.0 μg/kg per os): 19.4 pg/mL | IL-4 ([2]; Spontaneous, 100.0 μg/kg per os): 27.1 pg/mL | Activity of phagocytosis % (neutrophils; [8]): 46.88 ± 4.92% | Functional reserve, conv. units (neutrophils; [8]): 1.929 ± 0.225 conv. units | Induced HCT-test, activity, % (neutrophils; [8]): 48.63 ± 4.62% | Induced HCT-test, index, conv. units (neutrophils; [8]): 0.732 ± 0.08 conv. units | Intensity of phagocytosis, conv. units (neutrophils; [8]): 1.44 ± 0.189 conv. units | Lysosomal activity, conv. units (neutrophils; [8]): 198.7 ± 22.5 conv. units | Neutrophils % (neutrophils; [8]): 56.56 ± 2.07% | Neutrophils × 10^9/l (neutrophils; [8]): 3.403 ± 0.27 × 10^9/l | Phagocytary number, conv. units (neutrophils; [8]): 2.92 ± 0.255 conv. units | Spontaneous HCT-test, activity, % (neutrophils; [8]): 34.50 ± 5.62% | Spontaneous HCT-test, index, conv. (neutrophils; [8]): 0.50 ± 0.093 conv. | spontaneous activity and intensity of neutrophils in the HCT reaction (neutrophils; immunodeficient subjects with SCV-07 versus vaccine only and versus healthy, p<0.05): significantly lower | activities of neutrophils in the induced HCT test (neutrophils; subjects who received SCV-07 versus vaccinated without immunomodulator, after vaccination, p<0.05): significantly higher
